Assay results taken from ChEMBL document CHEMBL1201862, “PubChem BioAssay data set” (2004).
Values joined by “and” are separate entries in the source; they are usually repeats but may differ in a detail not shown here. Identical values can stand only once. Active and inactive are the calls of the source.

Tests used:
Nonstructural protein 1 = Nonstructural protein 1 (Influenza A virus, UniProt Q194T2); assay type: functional, Influenza A virus (A/California/07/2009(H1N1))
Hexokinase HKDC1 = Hexokinase HKDC1 (Homo sapiens, UniProt Q2TB90); test: HKDC1 hexokinase activators, dose response, biochemical, W721R variant (AID 504730); assay type: functional
[1] = biological target: Heat shock protein HSP 90-alpha (Homo sapiens, UniProt P07900); assay type: functional, organism-based
Hexokinase-1 = Hexokinase-1 (Homo sapiens, UniProt P19367); test: hexokinase 1 activators, dose response, selectivity assay for HKDC1 activator project, biochemical (AID 504762); assay type: functional
[2] = cytotoxicity in NIH/3T3 mouse fibroblasts, dose response, cytotoxicity control, cell-based, mouse embryonic fibroblasts, dry powder, set 2 (AID 493247); assay type: functional; conditions: Fibroblast
Trypanosoma cruzi = test: growth inhibition of intracellular Trypanosoma cruzi, dose response, cell-based, plate reader, dry powder, set 3 (AID 493197); assay type: functional
[3] = biological target: G-protein coupled receptor 55 (Homo sapiens, UniProt Q9Y2T6); test: GPR55 antagonists blocking LPI-driven arrestin recruitment, primary screen, imaging, U2OS, beta-arrestin-GFP, LPI agonist (AID 2013); assay type: functional;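 further: antagonist potency measured as reduced agonist-driven arrestin aggregation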
[4] = biological target: Glyceraldehyde-3-phosphate dehydrogenase (Homo sapiens, UniProt P04406)
[5] = biological target: Alkaline phosphatase, placental type (Homo sapiens, UniProt P05187); test: PLAP enzyme inhibitors, confirmation, biochemical, luminescence (AID 1512); assay type: functional
[6] = biological target: T1, Alkaline phosphatase, tissue-nonspecific isozyme (Homo sapiens, UniProt P05186); test: SAR assay for compounds inhibiting TNAP in the absence of phosphate acceptor performed in a luminescent assay. [Related pubchem assays (depositor defined):AID1548, AID1659, AID518]
T1 sequence (P05186 whole entry): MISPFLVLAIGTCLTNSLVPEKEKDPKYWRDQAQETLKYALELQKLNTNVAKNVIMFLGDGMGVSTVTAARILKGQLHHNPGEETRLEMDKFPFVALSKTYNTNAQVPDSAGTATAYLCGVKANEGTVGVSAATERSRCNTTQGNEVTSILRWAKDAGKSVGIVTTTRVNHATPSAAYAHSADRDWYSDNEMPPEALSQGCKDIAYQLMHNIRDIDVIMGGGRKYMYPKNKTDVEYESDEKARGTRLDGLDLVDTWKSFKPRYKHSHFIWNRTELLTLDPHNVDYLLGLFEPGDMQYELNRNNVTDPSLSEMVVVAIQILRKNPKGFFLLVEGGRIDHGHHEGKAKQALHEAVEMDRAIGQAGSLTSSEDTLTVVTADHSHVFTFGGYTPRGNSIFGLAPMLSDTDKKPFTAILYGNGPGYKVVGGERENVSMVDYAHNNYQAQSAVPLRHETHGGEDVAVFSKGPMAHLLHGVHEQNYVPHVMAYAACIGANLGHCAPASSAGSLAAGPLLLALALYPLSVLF

[7] = biological target: T1, Alkaline phosphatase, tissue-nonspecific isozyme; test: human TNAP enzyme inhibitors, SAR follow-up, biochemical, luminescent, dose response (AID 1056)
[8] = THP-1 cell cytotoxicity, dose response, cytotoxicity control for non-replicating M. tuberculosis project (AID 489025); assay type: functional
Streptococcus = test: Group A Streptococcus viability loss, dose response, counter-screen for streptokinase expression inhibitor project, luminescence, BacTiterGlo (AID 1915); assay type: functional, organism-based;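 further: potency for reduction of bacterial viability or growth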
[9] = biological target: T2, Microphthalmia-associated transcription factor (Homo sapiens, UniProt O75030); test: TRPM1 promoter luciferase signal decrease, dose response, MITF inhibitor project, cell-based, SK-MEL-5, cherry-picked, set 3 (AID 493073); assay type: functional
T2 sequence (O75030 whole entry): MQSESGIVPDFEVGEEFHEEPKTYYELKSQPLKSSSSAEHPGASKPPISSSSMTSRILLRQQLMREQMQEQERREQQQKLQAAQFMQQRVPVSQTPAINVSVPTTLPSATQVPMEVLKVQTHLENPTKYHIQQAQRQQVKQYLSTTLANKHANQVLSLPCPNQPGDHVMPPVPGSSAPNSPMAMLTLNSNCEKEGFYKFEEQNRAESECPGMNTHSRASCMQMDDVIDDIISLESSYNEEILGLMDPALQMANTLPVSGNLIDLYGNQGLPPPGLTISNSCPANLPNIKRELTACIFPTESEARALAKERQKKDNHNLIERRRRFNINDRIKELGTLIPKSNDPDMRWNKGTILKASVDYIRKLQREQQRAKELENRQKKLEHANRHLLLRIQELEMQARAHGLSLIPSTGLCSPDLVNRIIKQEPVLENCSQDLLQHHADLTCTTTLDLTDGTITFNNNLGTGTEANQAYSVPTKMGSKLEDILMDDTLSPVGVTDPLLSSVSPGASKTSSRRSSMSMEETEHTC

Protein Wnt-3a = Protein Wnt-3a (Mus musculus, UniProt P27467); test: Wnt3a-driven reporter signaling inhibition, dose response, selectivity assay for Gli-SUFU antagonist project, Wnt-LIGHT cells, luminescence (AID 651570); assay type: functional; conditions: read-out: IC50_Mean;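 further: Wnt-LIGHT reporter cells stimulated with conditioned medium from Wnt3a-producing cells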
[10] = test system: Streptococcus sp. 'group A'; test: growth inhibition of control SK(-) GAS strain, dose response, counter-screen for streptokinase expression inhibitor project, luminescence, kanamycin, BacTiterGlo, confirmation (AID 1900); assay type: functional, organism-based
[11] = Vero E6 cell cytotoxicity, dose response, cytotoxicity control for non-replicating M. tuberculosis project, secondary assay (AID 492998); assay type: functional, VeroE6; conditions: Vero C1008
[12] = HepG2 cell cytotoxicity, dose response, cytotoxicity control for non-replicating M. tuberculosis project (AID 489018); assay type: functional; conditions: Mycobacterium tuberculosis
cells = assay type: functional
Coagulation factor XII = biological target: T3, Coagulation factor XII (Homo sapiens, UniProt P00748); test: Factor XIIa Dose Response Confirmation from Single Well HTS. [Related pubchem assays (depositor defined):AID701]; assay type: functional
T3 sequence (P00748 whole entry): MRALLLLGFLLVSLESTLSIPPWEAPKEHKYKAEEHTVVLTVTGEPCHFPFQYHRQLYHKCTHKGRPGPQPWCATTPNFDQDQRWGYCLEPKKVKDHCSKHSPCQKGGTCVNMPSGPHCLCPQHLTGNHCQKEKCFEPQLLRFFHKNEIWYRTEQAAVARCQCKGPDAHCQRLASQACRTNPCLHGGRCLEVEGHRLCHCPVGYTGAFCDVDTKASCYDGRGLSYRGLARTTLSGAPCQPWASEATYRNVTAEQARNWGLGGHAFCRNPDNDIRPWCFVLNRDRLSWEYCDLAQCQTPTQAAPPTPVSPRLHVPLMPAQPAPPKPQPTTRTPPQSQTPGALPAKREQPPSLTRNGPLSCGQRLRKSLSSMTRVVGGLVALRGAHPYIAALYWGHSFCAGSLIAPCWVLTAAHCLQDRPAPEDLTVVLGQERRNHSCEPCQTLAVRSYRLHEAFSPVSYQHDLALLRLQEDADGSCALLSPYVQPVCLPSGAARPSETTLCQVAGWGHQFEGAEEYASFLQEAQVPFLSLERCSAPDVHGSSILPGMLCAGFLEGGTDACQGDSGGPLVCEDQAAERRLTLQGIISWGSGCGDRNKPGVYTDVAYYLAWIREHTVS

[13] = biological target: T4, Heat shock factor protein 1 (Mus musculus, UniProt P38532); test: inhibition of MG132-induced HSE-luciferase signal, confirmation, cell-based, NIH3T3, luminescence, dose retest (AID 2382); assay type: functional;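 further: NIH3T3 fibroblasts with HSF1-driven luciferase reporter stressed by proteasome inhibitor MG132; luminescence from HSF1-driven luciferase expression after 8 hours of MG132 stress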
T4 sequence (P38532 whole entry): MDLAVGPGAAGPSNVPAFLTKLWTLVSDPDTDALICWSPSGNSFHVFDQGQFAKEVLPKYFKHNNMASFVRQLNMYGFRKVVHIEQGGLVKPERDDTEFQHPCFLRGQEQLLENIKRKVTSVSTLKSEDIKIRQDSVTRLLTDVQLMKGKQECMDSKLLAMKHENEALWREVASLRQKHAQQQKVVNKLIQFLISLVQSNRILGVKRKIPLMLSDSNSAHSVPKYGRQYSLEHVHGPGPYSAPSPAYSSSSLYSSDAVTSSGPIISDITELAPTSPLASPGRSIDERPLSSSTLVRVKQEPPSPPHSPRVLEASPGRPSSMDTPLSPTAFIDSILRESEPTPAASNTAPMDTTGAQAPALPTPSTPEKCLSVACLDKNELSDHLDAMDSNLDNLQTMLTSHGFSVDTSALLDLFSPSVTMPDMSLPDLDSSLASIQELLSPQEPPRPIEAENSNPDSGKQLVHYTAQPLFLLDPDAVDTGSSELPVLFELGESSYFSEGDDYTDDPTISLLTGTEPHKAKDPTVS

[14] = biological target: Peroxisome proliferator-activated receptor gamma (Homo sapiens, UniProt P37231); test: PPARg partial agonists, dose response, cell-based, luminescence, assay provider (AID 504447); assay type: functional
Peroxisome proliferator-activated receptor gamma, sequence (P37231 whole entry): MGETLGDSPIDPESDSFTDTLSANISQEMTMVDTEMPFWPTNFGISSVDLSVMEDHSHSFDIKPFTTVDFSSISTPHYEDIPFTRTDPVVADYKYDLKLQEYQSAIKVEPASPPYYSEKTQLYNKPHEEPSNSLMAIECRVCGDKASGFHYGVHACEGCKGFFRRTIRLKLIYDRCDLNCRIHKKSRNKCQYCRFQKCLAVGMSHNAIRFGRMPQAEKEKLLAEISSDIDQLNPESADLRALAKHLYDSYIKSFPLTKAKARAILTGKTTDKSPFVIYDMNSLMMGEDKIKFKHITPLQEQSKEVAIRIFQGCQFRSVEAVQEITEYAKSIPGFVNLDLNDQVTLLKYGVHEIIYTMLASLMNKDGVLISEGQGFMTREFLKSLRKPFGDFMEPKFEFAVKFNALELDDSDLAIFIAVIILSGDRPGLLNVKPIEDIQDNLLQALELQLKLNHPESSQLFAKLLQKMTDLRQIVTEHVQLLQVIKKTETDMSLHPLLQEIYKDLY

G-protein coupled receptor 55, sequence (Q9Y2T6 whole entry): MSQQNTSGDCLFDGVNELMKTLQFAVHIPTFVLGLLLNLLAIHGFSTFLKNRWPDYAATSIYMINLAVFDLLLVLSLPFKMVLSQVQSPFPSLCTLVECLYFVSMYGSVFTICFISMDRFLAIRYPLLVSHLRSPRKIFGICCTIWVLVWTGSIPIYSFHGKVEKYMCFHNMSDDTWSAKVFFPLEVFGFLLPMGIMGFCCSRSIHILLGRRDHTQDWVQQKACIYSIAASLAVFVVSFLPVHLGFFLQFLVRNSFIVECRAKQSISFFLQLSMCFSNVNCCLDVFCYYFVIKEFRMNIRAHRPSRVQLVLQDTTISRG
Hexokinase HKDC1, sequence (Q2TB90 whole entry): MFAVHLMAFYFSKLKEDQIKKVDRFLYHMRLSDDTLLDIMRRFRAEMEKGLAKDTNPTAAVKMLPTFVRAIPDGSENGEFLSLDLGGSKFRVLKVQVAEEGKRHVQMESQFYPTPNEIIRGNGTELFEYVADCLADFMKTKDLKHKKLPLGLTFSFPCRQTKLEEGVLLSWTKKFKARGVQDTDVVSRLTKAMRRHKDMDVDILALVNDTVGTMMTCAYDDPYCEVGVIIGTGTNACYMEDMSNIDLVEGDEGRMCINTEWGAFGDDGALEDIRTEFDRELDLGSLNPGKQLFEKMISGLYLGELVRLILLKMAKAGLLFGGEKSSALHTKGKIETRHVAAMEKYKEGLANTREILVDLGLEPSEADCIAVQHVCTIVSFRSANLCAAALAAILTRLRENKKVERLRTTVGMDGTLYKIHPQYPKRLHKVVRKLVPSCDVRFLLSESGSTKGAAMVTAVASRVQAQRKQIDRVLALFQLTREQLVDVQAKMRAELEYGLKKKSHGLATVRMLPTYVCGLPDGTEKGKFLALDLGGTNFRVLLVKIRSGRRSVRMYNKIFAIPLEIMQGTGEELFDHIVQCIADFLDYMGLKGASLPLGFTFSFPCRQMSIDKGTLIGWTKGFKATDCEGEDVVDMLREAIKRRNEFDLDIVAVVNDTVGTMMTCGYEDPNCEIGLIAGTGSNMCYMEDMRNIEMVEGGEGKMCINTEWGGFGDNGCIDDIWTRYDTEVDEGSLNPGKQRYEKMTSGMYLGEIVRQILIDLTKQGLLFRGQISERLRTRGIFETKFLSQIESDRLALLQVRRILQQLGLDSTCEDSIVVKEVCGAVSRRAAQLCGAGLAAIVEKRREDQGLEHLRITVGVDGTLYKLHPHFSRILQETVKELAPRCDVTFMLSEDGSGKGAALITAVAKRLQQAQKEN
Protein Wnt-3a, sequence (P27467 whole entry): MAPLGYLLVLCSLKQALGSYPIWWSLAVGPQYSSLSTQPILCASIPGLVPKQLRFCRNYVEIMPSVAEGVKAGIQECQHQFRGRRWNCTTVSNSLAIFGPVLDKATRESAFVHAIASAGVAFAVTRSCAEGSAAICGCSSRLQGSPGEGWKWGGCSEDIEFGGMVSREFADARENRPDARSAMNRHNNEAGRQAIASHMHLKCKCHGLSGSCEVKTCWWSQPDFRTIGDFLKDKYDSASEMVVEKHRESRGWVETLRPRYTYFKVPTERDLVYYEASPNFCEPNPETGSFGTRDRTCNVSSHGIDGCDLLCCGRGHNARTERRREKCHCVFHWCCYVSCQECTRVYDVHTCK
Hexokinase-1, sequence (P19367 whole entry): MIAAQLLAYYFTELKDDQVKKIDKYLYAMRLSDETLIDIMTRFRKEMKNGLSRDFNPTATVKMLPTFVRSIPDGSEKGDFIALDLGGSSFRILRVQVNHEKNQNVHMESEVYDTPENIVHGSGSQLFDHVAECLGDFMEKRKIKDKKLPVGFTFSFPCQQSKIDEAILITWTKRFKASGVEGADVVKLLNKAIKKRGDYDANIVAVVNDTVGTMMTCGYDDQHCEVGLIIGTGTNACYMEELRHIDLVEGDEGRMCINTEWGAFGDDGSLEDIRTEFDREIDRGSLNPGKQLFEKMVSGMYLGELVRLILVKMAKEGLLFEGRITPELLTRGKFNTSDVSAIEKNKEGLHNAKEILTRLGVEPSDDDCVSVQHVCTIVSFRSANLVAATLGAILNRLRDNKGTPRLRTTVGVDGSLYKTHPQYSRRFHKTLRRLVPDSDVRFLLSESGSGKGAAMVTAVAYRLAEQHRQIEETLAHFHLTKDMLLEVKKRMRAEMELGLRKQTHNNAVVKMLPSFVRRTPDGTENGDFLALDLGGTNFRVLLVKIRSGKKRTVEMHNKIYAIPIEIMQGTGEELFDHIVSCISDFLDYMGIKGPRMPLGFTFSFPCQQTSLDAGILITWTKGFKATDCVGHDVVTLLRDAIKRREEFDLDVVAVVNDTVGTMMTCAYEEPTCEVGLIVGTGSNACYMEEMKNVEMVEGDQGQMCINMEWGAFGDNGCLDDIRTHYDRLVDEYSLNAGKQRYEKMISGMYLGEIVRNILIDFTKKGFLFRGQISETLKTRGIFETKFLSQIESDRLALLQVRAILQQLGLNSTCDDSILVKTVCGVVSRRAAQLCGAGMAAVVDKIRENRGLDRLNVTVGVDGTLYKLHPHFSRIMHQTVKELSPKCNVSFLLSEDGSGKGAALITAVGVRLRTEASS
Nonstructural protein 1, sequence (Q194T2 whole entry): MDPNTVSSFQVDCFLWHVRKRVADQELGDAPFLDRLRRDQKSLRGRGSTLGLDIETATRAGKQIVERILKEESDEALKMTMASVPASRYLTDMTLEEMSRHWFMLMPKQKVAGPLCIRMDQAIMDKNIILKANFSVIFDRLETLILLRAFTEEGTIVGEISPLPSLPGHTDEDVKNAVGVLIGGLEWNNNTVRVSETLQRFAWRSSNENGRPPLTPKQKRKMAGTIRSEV
Glyceraldehyde-3-phosphate dehydrogenase, sequence (P04406 whole entry): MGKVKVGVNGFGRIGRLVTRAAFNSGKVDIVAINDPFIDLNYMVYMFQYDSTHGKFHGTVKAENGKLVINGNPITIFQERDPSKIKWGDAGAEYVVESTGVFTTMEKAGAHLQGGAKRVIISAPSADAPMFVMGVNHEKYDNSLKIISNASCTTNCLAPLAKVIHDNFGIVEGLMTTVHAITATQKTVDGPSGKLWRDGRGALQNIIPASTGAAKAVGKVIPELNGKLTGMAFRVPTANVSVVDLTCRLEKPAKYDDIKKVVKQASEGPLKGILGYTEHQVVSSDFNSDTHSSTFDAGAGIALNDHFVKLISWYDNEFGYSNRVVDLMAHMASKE
Alkaline phosphatase, placental type, sequence (P05187 whole entry): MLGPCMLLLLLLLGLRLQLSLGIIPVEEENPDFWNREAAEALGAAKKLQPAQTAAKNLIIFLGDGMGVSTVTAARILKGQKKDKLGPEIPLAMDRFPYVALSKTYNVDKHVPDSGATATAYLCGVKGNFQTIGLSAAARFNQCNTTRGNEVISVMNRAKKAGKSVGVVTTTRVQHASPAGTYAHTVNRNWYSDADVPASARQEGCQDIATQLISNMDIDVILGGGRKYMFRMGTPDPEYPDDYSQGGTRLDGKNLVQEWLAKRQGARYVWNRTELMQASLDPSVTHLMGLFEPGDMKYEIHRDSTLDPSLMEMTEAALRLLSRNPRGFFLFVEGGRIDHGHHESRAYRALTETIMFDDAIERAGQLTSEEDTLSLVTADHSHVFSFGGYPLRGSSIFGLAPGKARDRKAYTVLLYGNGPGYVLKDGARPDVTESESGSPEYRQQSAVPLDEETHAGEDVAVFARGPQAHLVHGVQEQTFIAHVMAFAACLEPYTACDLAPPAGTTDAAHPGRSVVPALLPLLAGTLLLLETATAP

CC(=NNC(=S)Nc1cccc(C)c1)c1ccccn1
IC50 (Nonstructural protein 1): 8.54 µM (active)
EC50 (Hexokinase HKDC1): 2.27 µM (active)
AC50 [1]: 2.25 µM (active)
EC50 (Hexokinase-1): > 80 µM (inactive)

COc1ccc(CN2CCCC(C(=O)N3CCc4ccccc4C3)C2)cc1OC (configuration not stated)
AC50 [2]: 41.7 µM (active)
AC50 (Trypanosoma cruzi): 3.54 µM (active)

Cc1ccccc1CSCCNC(=O)c1ccc(N(C)S(=O)(=O)c2ccccc2)cc1
IC50 [3]: 3 µM (active)

COc1ccc(C)cc1S(=O)(=O)Nc1cccnc1
IC50 [4]: > 100 µM (not active)
IC50 [5]: > 100 µM (inactive)
IC50 [6]: 16.6 µM (active) and 16.4 µM (active)
IC50 [7]: 2.34 µM (active) and 1.6 µM (active)

CCCCCCn1c(=O)c(C(=O)Nc2cnccn2)c(O)c2ccccc21
CC50 [8]: 3.51 µM (active)
EC50 (Streptococcus): 13 µM (active)
AC50 [9]: 3.68 µM (active)
IC50 (Protein Wnt-3a): 3.55 µM (active)
EC50 [10]: 3 µM (active)
CC50 [11]: 7.38 µM (active)
CC50 [12]: 10.2 µM (active)
IC50 (cells): 5.03 µM (active)

CC(C)CN(CC(C)C)S(=O)(=O)N1CCC(C(=O)NCCc2ccc(Cl)cc2)CC1
IC50 (Coagulation factor XII): > 50 µM (inactive)

Cc1cc(C(=O)CN2C(=O)C(=O)N(Cc3ccccc3)C2=O)c(C)n1-c1ccc2c(c1)OCCO2
EC50 [13]: > 195 µM (not active)
EC50 [14]: 15 µM (active)
